Assay results as given in PMC4522399 (Journal of pharmaceutical sciences, 2015).

Columns and labels:
human NTCP = biological target: T1, human NTCP (Homo sapiens, UniProt Q14973); settings: native substrate, comparison value; cited from earlier work
T1 sequence (Q14973 1-349): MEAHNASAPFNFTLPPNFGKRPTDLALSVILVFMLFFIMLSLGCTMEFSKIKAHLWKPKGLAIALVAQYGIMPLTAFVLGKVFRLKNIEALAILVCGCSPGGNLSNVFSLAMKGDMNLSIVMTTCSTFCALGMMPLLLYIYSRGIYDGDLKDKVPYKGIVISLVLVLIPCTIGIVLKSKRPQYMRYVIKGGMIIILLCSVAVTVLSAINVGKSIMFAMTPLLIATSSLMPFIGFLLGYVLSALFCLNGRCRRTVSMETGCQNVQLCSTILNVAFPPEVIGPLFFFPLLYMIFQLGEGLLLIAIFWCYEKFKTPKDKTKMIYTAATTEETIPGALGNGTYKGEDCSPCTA

in vivo = settings: male, Balb/c, mouse, iv, 0.08 mmol/kg

Row | SMILES | Kt (human NTCP) [µM] | Tmax (in vivo) [min]
1 | C[C@H](CCC(=O)NCCS(=O)(=O)O)[C@H]1CC[C@H]2[C@@H]3[C@H](O)C[C@@H]4C[C@H](O)CC[C@]4(C)[C@H]3C[C@H](O)[C@]12C [taurocholate] | 22.7 | 
2 | NC(=O)c1ncn([C@@H]2O[C@H](CO)[C@@H](O)[C@H]2O)n1 [ribavirin, Ribavirin] |  | 30
